Source: patent US20240228555A9, “ANTIMICROBIAL PEPTIDOMIMETICS” (Basilea Pharmaceutica International AG, Allschwil, priority 2020, published 2024)
Where a SMILES comes first, the peptide text is derived from it.

Tests used:
[1] = tested on: Klebsiella pneumoniae SSI3010; conditions: SSI3010
How it was run: (§1)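 First, bacterial colonies are suspended in saline and adjusted to 0.5 McFarland. Next, the suspension is diluted into cation-adjusted Mueller-Hinton II broth (approx. 5×10^5 CFU/mL). Finally, it is added to two-fold serially diluted peptide, with polysorbate 80 at 0.002% final.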

[2] = tested on: Escherichia coli MCR-1 Af 45; conditions: Mueller-Hinton broth II, no visible growth after 18-20 hours at 35° C.
How it was run: as §1

[3] = tested on: Escherichia coli ATCC 25922; conditions: ATCC 25922
How it was run: as §1

[4] = tested on: human red blood cells (hRBC); format: cell-based; conditions: red cells of human, 1 h, 0.2 g/L
How it was run: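 Percent lysis was derived from supernatant absorbance at 540 nm relative to full lysis by 2.5% Triton X-100 (PBS defines 0%). Compounds, 200 μg/mL, were exposed for 1 h at 37° C to a 20% (v/v) suspension of washed human red cells.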

| SMILES | Klebsiella pneumoniae SSI3010 MIC [1] [µg/mL] | Escherichia coli MCR-1 Af 45 MIC [2] [µg/mL] | Escherichia coli ATCC 25922 MIC [3] [µg/mL] | Hemolysis at 0.2 g/L [4] [%] |
| --- | --- | --- | --- | --- |
| CC[C@H](C)[C@H](NC(=O)[C@@H]1C[C@@H](O)CN1C(=O)[C@@H](N)C(C)C)C(=O)N[C@@H](CCN)C(=O)N[C@@H](Cc1ccc(O)cc1)C(=O)N[C@@H]1C(=O)N[C@@H](CC(N)=O)C(=O)N[C@@H](CCCNC(=N)N)C(=O)N[C@@H](CCN)C(=O)N[C@@H]([C@@H](C)O)C(=O)N[C@H](CCN)C(=O)N[C@@H](CCCNC(N)=O)C(=O)N[C@H](C(=O)N[C@@H](CCN)C(=O)N[C@@H](CO)C(=O)N[C@@H](Cc2ccc(O)cc2)C(=O)O)CSSC1(C)C [Example 108, Val-Hyp-Ile-Dab-Tyr-Pen-Asn-Arg-Dab-Thr-^DDab-Cit-Cys-Dab-Ser-Tyr] (HELM PEPTIDE1{V.[Hyp].I.[Dab].Y.[Pen].N.R.[Dab].T.[NCC[C@@H](N[*:1])C(=O)[*:2]].[Cit].C.[Dab].S.Y}$PEPTIDE1,PEPTIDE1,6:R3-13:R3$$$V2.0) | 0.25 | 0.125 | 0.25 | <1 |
| CC[C@H](C)[C@H](NC(=O)[C@@H](NC(=O)[C@@H]1C[C@@H](N)CN1C(=O)[C@@H](N)C(C)C)[C@@H](C)CC)C(=O)N[C@@H](Cc1ccc(O)cc1)C(=O)N[C@@H]1C(=O)N[C@@H](CC(N)=O)C(=O)N[C@@H](CCCNC(=N)N)C(=O)N[C@@H](CCN)C(=O)N[C@@H]([C@@H](C)O)C(=O)N[C@H](CCN)C(=O)N[C@@H](CCCCN)C(=O)N[C@H](C(=O)N[C@@H](CCN)C(=O)N[C@H](C(=O)N[C@@H](Cc2ccc(O)cc2)C(=O)O)[C@@H](C)O)CSSC1(C)C [Example 109, Val-Pro((4R)NH2)-Ile-Ile-Tyr-Pen-Asn-Arg-Dab-Thr-^DDab-Lys-Cys-Dab-Thr-Tyr] (HELM PEPTIDE1{V.[N[C@@H]1C[C@@H](C(=O)[*:2])N([*:1])C1].I.I.Y.[Pen].N.R.[Dab].T.[NCC[C@@H](N[*:1])C(=O)[*:2]].K.C.[Dab].T.Y}$PEPTIDE1,PEPTIDE1,6:R3-13:R3$$$V2.0) | 0.25 | 0.125 | 0.125 | <1 |
| CC[C@H](C)[C@H](NC(=O)[C@@H]1C[C@@H](N)CN1C(=O)[C@@H](N)C(C)C)C(=O)N[C@H](C(=O)N[C@@H](Cc1ccc(O)cc1)C(=O)N[C@@H]1C(=O)N[C@@H](CC(N)=O)C(=O)N[C@@H](CCCNC(=N)N)C(=O)N[C@@H](CCN)C(=O)N[C@@H]([C@@H](C)O)C(=O)N[C@H](CCN)C(=O)N[C@@H](CCCCN)C(=O)N[C@H](C(=O)N[C@@H](CO)C(=O)N[C@@H](CCCNC(=N)N)C(=O)N[C@@H](Cc2ccc(O)cc2)C(=O)O)CSSC1(C)C)[C@@H](C)O [Example 110, Val-Pro((4R)NH2)-Ile-Thr-Tyr-Pen-Asn-Arg-Dab-Thr-^DDab-Lys-Cys-Ser-Arg-Tyr] (HELM PEPTIDE1{V.[N[C@@H]1C[C@@H](C(=O)[*:2])N([*:1])C1].I.T.Y.[Pen].N.R.[Dab].T.[NCC[C@@H](N[*:1])C(=O)[*:2]].K.C.S.R.Y}$PEPTIDE1,PEPTIDE1,6:R3-13:R3$$$V2.0) | 0.5 | 0.125 | 0.5 | <1 |
| CC[C@H](C)[C@H](NC(=O)[C@@H](NC(=O)[C@@H]1C[C@@H](O)CN1C(=O)[C@@H](N)C(C)C)[C@@H](C)CC)C(=O)N[C@@H](Cc1ccc(O)cc1)C(=O)N[C@@H]1C(=O)N[C@@H](CC(N)=O)C(=O)N[C@@H](CCCNC(=N)N)C(=O)N[C@@H](CCN)C(=O)N[C@@H]([C@@H](C)O)C(=O)N[C@H](CCN)C(=O)N[C@@H](CCCCN)C(=O)N[C@H](C(=O)N[C@@H](CCN)C(=O)N[C@H](C(=O)N[C@@H](Cc2ccc(O)cc2)C(=O)O)[C@@H](C)O)CSSC1(C)C [Example 111, Val-Hyp-Ile-Ile-Tyr-Pen-Asn-Arg-Dab-Thr-^DDab-Lys-Cys-Dab-Thr-Tyr] (HELM PEPTIDE1{V.[Hyp].I.I.Y.[Pen].N.R.[Dab].T.[NCC[C@@H](N[*:1])C(=O)[*:2]].K.C.[Dab].T.Y}$PEPTIDE1,PEPTIDE1,6:R3-13:R3$$$V2.0) | 0.5 | 0.125 | 0.25 | <1 |
| CC[C@H](C)[C@H](NC(=O)[C@@H](NC(=O)[C@@H]1C[C@@H](O)CN1C(=O)[C@@H](N)C(C)C)[C@@H](C)CC)C(=O)N[C@@H](Cc1ccc(O)cc1)C(=O)N[C@@H]1C(=O)N[C@@H](CC(N)=O)C(=O)N[C@@H](CCCNC(=N)N)C(=O)N[C@@H](CCN)C(=O)N[C@@H](CO)C(=O)N[C@H](CCN)C(=O)N[C@@H](CCCCN)C(=O)N[C@H](C(=O)N[C@@H](CCN)C(=O)N[C@H](C(=O)N[C@@H](Cc2ccc(O)cc2)C(=O)O)[C@@H](C)O)CSSC1(C)C [Example 112, Val-Hyp-Ile-Ile-Tyr-Pen-Asn-Arg-Dab-Ser-^DDab-Lys-Cys-Dab-Thr-Tyr] (HELM PEPTIDE1{V.[Hyp].I.I.Y.[Pen].N.R.[Dab].S.[NCC[C@@H](N[*:1])C(=O)[*:2]].K.C.[Dab].T.Y}$PEPTIDE1,PEPTIDE1,6:R3-13:R3$$$V2.0) | 0.25 | 0.0625 | 0.25 | <1 |
| CC[C@H](C)[C@H](NC(=O)[C@@H]1C[C@@H](O)CN1C(=O)[C@@H](N)C(C)C)C(=O)N[C@@H](CCN)C(=O)N[C@@H](Cc1ccc(O)cc1)C(=O)N[C@@H]1C(=O)N[C@@H](CC(N)=O)C(=O)N[C@@H](CCCNC(=N)N)C(=O)N[C@@H](CCN)C(=O)N[C@@H]([C@@H](C)O)C(=O)N[C@H](CCN)C(=O)N[C@@H](CCCNC(N)=O)C(=O)N[C@H](C(=O)N[C@@H](CCN)C(=O)N[C@H](C(=O)N[C@@H](Cc2ccc(O)cc2)C(=O)O)[C@@H](C)O)CSSC1(C)C [Example 113, Val-Hyp-Ile-Dab-Tyr-Pen-Asn-Arg-Dab-Thr-^DDab-Cit-Cys-Dab-Thr-Tyr] (HELM PEPTIDE1{V.[Hyp].I.[Dab].Y.[Pen].N.R.[Dab].T.[NCC[C@@H](N[*:1])C(=O)[*:2]].[Cit].C.[Dab].T.Y}$PEPTIDE1,PEPTIDE1,6:R3-13:R3$$$V2.0) | 0.25 | 0.125 | 0.125 | <1 |
| CC[C@H](C)[C@H](NC(=O)[C@@H](NC(=O)[C@@H]1C[C@@H](O)CN1C(=O)[C@@H](N)C(C)(C)C)[C@@H](C)CC)C(=O)N[C@@H](Cc1ccc(O)cc1)C(=O)N[C@@H]1C(=O)N[C@@H](CC(N)=O)C(=O)N[C@@H](CCCNC(=N)N)C(=O)N[C@@H](CCN)C(=O)N[C@@H]([C@@H](C)O)C(=O)N[C@H](CCN)C(=O)N[C@@H](CCCCN)C(=O)N[C@H](C(=O)N[C@@H](CCN)C(=O)N[C@@H](CCCNC(=N)N)C(=O)N[C@@H](Cc2ccc(O)cc2)C(=O)O)CSSC1(C)C [Example 114, tBuGly-Hyp-Ile-Ile-Tyr-Pen-Asn-Arg-Dab-Thr-^DDab-Lys-Cys-Dab-Arg-Tyr] (HELM PEPTIDE1{[CC(C)(C)[C@H](N)C(=O)[*:2]].[Hyp].I.I.Y.[Pen].N.R.[Dab].T.[NCC[C@@H](N[*:1])C(=O)[*:2]].K.C.[Dab].R.Y}$PEPTIDE1,PEPTIDE1,6:R3-13:R3$$$V2.0) | 0.5 | 0.125 | 0.125 | <1 |
| CC[C@H](C)[C@H](NC(=O)[C@@H](NC(=O)[C@@H]1C[C@@H](N)CN1C(=O)[C@@H](N)C(C)C)[C@@H](C)CC)C(=O)N[C@@H](Cc1ccc(O)cc1)C(=O)N[C@@H]1C(=O)N[C@@H](CC(N)=O)C(=O)N[C@@H](CCCNC(=N)N)C(=O)N[C@@H](CCN)C(=O)N[C@@H]([C@@H](C)O)C(=O)N[C@H](CCN)C(=O)N[C@@H]([C@@H](C)CC)C(=O)N[C@H](C(=O)N[C@@H](CCN)C(=O)N[C@H](C(=O)N[C@@H](Cc2ccc(O)cc2)C(=O)O)[C@@H](C)O)CSSC1(C)C [Example 115, Val-Pro((4R)NH2)-Ile-Ile-Tyr-Pen-Asn-Arg-Dab-Thr-^DDab-Ile-Cys-Dab-Thr-Tyr] (HELM PEPTIDE1{V.[N[C@@H]1C[C@@H](C(=O)[*:2])N([*:1])C1].I.I.Y.[Pen].N.R.[Dab].T.[NCC[C@@H](N[*:1])C(=O)[*:2]].I.C.[Dab].T.Y}$PEPTIDE1,PEPTIDE1,6:R3-13:R3$$$V2.0) | 0.5 | 0.125 | 0.5 | <1 |
